Data taken from US20240208992A1, “MACROCYCLES AS CFTR MODULATORS” (Idorsia Pharmaceuticals Ltd, priority 2021, published 2024).

Biological target: human F508del-CFTR (Homo sapiens, UniProt P13569, DEL508-508)
Test: F508del-CFTR cell surface expression (corrector activity), DiscoveRx ß-galactosidase complementation chemiluminescence assay in recombinant U2OS cell line;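 also: U2OS cells co-expressing ProLink-tagged F508del-CFTR and a membrane-anchored enzyme acceptor, where more surface CFTR restores β-galactosidase activity measured by chemiluminescence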
Details: U2OS cell line, 16h compound incubation; for EC50: EC50, F508del-CFTR cell surface expression, geomean values; for Emax: U2OS, in relation to the Emax of the corrector lumacaftor (=100%), arithmetic mean values

Sequence of human F508del-CFTR (P13569 with tags, fused parts or gaps DEL508-508): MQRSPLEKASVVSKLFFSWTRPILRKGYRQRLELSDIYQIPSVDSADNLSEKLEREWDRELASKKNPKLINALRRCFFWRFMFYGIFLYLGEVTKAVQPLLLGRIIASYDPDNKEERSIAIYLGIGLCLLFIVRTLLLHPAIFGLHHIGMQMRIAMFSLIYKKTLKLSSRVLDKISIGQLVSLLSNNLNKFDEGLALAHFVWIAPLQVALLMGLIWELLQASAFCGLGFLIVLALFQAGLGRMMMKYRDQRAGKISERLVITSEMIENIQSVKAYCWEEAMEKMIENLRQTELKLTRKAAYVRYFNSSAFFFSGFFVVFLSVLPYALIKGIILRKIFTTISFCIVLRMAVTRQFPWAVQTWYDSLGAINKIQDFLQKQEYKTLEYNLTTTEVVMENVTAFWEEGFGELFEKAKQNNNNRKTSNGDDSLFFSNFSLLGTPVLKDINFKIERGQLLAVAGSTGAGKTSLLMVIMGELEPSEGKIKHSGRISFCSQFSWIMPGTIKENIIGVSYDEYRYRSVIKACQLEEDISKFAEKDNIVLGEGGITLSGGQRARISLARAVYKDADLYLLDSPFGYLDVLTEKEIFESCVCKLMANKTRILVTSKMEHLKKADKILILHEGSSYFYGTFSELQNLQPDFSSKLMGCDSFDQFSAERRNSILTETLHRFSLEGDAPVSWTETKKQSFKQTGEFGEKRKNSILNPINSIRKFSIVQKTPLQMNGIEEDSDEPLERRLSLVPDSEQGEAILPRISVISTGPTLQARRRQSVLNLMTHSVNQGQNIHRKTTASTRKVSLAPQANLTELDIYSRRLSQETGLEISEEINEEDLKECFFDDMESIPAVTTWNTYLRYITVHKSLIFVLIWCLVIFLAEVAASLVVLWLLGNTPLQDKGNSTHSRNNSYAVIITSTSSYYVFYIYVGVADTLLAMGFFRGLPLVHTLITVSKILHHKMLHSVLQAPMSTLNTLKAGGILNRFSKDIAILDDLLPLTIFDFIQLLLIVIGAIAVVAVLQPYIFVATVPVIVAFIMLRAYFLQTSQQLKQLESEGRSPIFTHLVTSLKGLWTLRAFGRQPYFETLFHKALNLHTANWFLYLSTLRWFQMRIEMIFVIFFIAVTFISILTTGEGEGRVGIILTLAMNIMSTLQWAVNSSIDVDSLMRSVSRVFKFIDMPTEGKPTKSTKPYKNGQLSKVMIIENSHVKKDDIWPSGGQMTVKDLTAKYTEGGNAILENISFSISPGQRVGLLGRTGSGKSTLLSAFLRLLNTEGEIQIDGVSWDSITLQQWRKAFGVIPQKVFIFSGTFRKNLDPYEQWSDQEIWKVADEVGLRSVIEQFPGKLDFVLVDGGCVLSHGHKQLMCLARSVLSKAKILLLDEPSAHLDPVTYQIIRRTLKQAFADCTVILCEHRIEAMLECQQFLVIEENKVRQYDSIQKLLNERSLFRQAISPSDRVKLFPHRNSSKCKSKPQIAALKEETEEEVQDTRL

EC50 | Emax | Structure (SMILES)
313 nM | 331% | Cc1cc(CCNC(=O)[C@@H]2CC(=O)N(C)[C@@H](CC(C)C)C(=O)N(C)C3(CC3)C(=O)N[C@H](Cc3ccccc3)COc3cnc4ccc(F)cc4c3C(=O)N2)no1 [Example 141, (3′S,7′S,13′R)-13′-benzyl-20′-fluoro-7′-isobutyl-6′,9′-dimethyl-N-(2-(5-methylisoxazol-3-yl)ethyl)-1′,5′,8′,11′-tetraoxo-2′,3′,4′,5′,6′,7′,8′,9′,11′,12′,13′,14′-dodecahydro-1′H-spiro[cyclopropane-1,10′-[1]oxa[4,7,10,14]tetraazacycloheptadecino[17,16-c]quinoline]-3′-carboxamide]
194 nM | 381% | CC(C)C[C@H]1C(=O)N(C)C2(CC2)C(=O)N[C@H](Cc2ccccc2)COc2cnc3ccc(F)cc3c2C(=O)N[C@H](C(=O)NCCc2cc(C3CC3)on2)CC(=O)N1C [Example 142, (3′S,7′S,13′R)-13′-benzyl-N-(2-(5-cyclopropylisoxazol-3-yl)ethyl)-20′-fluoro-7′-isobutyl-6′,9′-dimethyl-1′,5′,8′,11′-tetraoxo-2′,3′,4′,5′,6′,7′,8′,9′,11′,12′,13′,14′-dodecahydro-1′H-spiro[cyclopropane-1,10′-[1]oxa[4,7,10,14]tetraazacycloheptadecino[17,16-c]quinoline]-3′-carboxamide]
922 nM | 320% | CC(C)C[C@H]1C(=O)N(C)C2(CC2)C(=O)N[C@H](Cc2ccccc2)COc2cnc3ccc(F)cc3c2C(=O)N[C@H](C(=O)NCCc2cnn(C)c2)CC(=O)N1C [Example 143, (3′S,7′S,13′R)-13′-benzyl-20′-fluoro-7′-isobutyl-6′,9′-dimethyl-N-(2-(1-methyl-1H-pyrazol-4-yl)ethyl)-1′,5′,8′,11′-tetraoxo-2′,3′,4′,5′,6′,7′,8′,9′,11′,12′,13′,14′-dodecahydro-1′H-spiro[cyclopropane-1,10′-[1]oxa[4,7,10,14]tetraazacycloheptadecino[17,16-c]quinoline]-3′-carboxamide]
309 nM | 107% | CC(C)C[C@H]1C(=O)N(C)C2(CC2)C(=O)N[C@H](Cc2ccccc2)COc2cnc3ccccc3c2C(=O)N[C@H](C(=O)NCC(F)(F)c2ccccc2)CC(=O)N1C [Example 145, (3′S,7′S,13′R)-13′-benzyl-N-(2,2-difluoro-2-phenylethyl)-7′-isobutyl-6′,9′-dimethyl-1′,5′,8′,11′-tetraoxo-2′,3′,4′,5′,6′,7′,8′,9′,11′,12′,13′,14′-dodecahydro-1′H-spiro[cyclopropane-1,10′-[1]oxa[4,7,10,14]tetraazacycloheptadecino[17,16-c]quinoline]-3′-carboxamide]
247 nM | 318% | Cc1noc(CCNC(=O)[C@@H]2CC(=O)N(C)[C@@H](CC(C)C)C(=O)N(C)C3(CC3)C(=O)N[C@H](Cc3ccccc3)COc3cnc4ccc(F)cc4c3C(=O)N2)n1 [Example 146, (3′S,7′S,13′R)-13′-benzyl-20′-fluoro-7′-isobutyl-6′,9′-dimethyl-N-(2-(3-methyl-1,2,4-oxadiazol-5-yl)ethyl)-1′,5′,8′,11′-tetraoxo-2′,3′,4′,5′,6′,7′,8′,9′,11′,12′,13′,14′-dodecahydro-1′H-spiro[cyclopropane-1,10′-[1]oxa[4,7,10,14]tetraazacycloheptadecino[17,16-c]quinoline]-3′-carboxamide]
270 nM | 339% | Cc1cc(CCNC(=O)[C@@H]2CC(=O)N(C)[C@@H](CC(C)C)C(=O)N(C)C3(CC3)C(=O)N[C@H](Cc3ccccc3)COc3cnc4ccc(F)cc4c3C(=O)N2)on1 [Example 147, (3′S,7′S,13′R)-13′-benzyl-20′-fluoro-7′-isobutyl-6′,9′-dimethyl-N-(2-(3-methylisoxazol-5-yl)ethyl)-1′,5′,8′,11′-tetraoxo-2′,3′,4′,5′,6′,7′,8′,9′,11′,12′,13′,14′-dodecahydro-1′H-spiro[cyclopropane-1,10′-[1]oxa[4,7,10,14]tetraazacycloheptadecino[17,16-c]quinoline]-3′-carboxamide]
811 nM | 198% | COc1cc2c(cc1OC)C(=O)N[C@H](C(=O)NCCc1ccc3c(c1)OCCC3)CC(=O)N(C)[C@@H](CC(C)C)C(=O)N(C)CC(=O)N[C@H](Cc1ccccc1)CO2 [Example 148, (3R,9S,13S)-3-benzyl-N-(2-(chroman-7-yl)ethyl)-9-isobutyl-17,18-dimethoxy-7,10-dimethyl-5,8,11,15-tetraoxo-2,3,4,5,6,7,8,9,10,11,12,13,14,15-tetradecahydrobenzo[p][1]oxa[4,7,10,14]tetraazacycloheptadecine-13-carboxamide]
151 nM | 130% | COc1cccc2c1C(=O)N[C@H](C(=O)NCCc1cccc(OC(F)F)c1)CC(=O)N(C)[C@@H](CC(C)C)C(=O)N(CCC1CCCCC1)CC(=O)N[C@H](Cc1ccccc1)CO2 [Example 150, (3R,9S,13S)-3-benzyl-7-(2-cyclohexylethyl)-N-(3-(difluoromethoxy)phenethyl)-9-isobutyl-16-methoxy-10-methyl-5,8,11,15-tetraoxo-2,3,4,5,6,7,8,9,10,11,12,13,14,15-tetradecahydrobenzo[p][1]oxa[4,7,10,14]tetraazacycloheptadecine-13-carboxamide]
315 nM | 169% | COc1cc(CCNC(=O)[C@@H]2CC(=O)N(C)[C@@H](CC(C)C)C(=O)N(CCC3CCCCC3)CC(=O)N[C@H](Cc3ccccc3)COc3cccc(OC)c3C(=O)N2)ccn1 [Example 158, (3R,9S,13S)-3-benzyl-7-(2-cyclohexylethyl)-9-isobutyl-16-methoxy-N-(2-(2-methoxypyridin-4-yl)ethyl)-10-methyl-5,8,11,15-tetraoxo-2,3,4,5,6,7,8,9,10,11,12,13,14,15-tetradecahydrobenzo[p][1]oxa[4,7,10,14]tetraazacycloheptadecine-13-carboxamide]

Structure (SMILES) | EC50 | Emax
CC(C)C[C@H]1C(=O)N(C)C2(CC2)C(=O)N[C@H](Cc2ccccc2)COc2cnc3ccc(F)cc3c2C(=O)N[C@H](C(=O)NCCc2noc(C3CC3)n2)CC(=O)N1C [Example 144, (3′S,7′S,13′R)-13′-benzyl-N-(2-(5-cyclopropyl-1,2,4-oxadiazol-3-yl)ethyl)-20′-fluoro-7′-isobutyl-6′,9′-dimethyl-1′,5′,8′,11′-tetraoxo-2′,3′,4′,5′,6′,7′,8′,9′,11′,12′,13′,14′-dodecahydro-1′H-spiro[cyclopropane-1,10′-[1]oxa[4,7,10,14]tetraazacycloheptadecino[17,16-c]quinoline]-3′-carboxamide] | 211 nM | 327%
COc1cccc2c1C(=O)N[C@H](C(=O)NCCc1ccc3c(c1)OCCO3)CC(=O)N(C)[C@@H](CC(C)C)C(=O)N(CCC1CCCCC1)CC(=O)N[C@H](Cc1ccccc1)CO2 [Example 149, (3R,9S,13S)-3-benzyl-7-(2-cyclohexylethyl)-N-(2-(2,3-dihydrobenzo[b][1,4]dioxin-6-yl)ethyl)-9-isobutyl-16-methoxy-10-methyl-5,8,11,15-tetraoxo-2,3,4,5,6,7,8,9,10,11,12,13,14,15-tetradecahydrobenzo[p][1]oxa[4,7,10,14]tetraazacycloheptadecine-13-carboxamide] | 191 nM | 259%
COc1ccc(CCNC(=O)[C@@H]2CC(=O)N(C)[C@@H](CC(C)C)C(=O)N(C)CC(=O)N[C@H](Cc3ccccc3)COc3cc4c(cc3C(=O)N2)OCO4)cc1 [Example 153, (7R,13S,17S)-7-benzyl-13-isobutyl-N-(4-methoxyphenethyl)-11,14-dimethyl-9,12,15,19-tetraoxo-6,7,8,9,10,11,12,13,14,15,16,17,18,19-tetradecahydro-[1,3]dioxolo[4′,5′:4,5]benzo[1,2-p][1]oxa[4,7,10,14]tetraazacycloheptadecine-17-carboxamide] | 460 nM | 115%
CC(C)C[C@H]1C(=O)N(CCC2CCOCC2)CC(=O)N[C@H](Cc2ccccc2)COc2cc3c(cc2C(=O)N[C@H](C(=O)NCCc2ccc4c(c2)OCO4)CC(=O)N1C)OCO3 [Example 154, (7R,13S,17S)-N-(2-(benzo[d][1,3]dioxol-5-yl)ethyl)-7-benzyl-13-isobutyl-14-methyl-9,12,15,19-tetraoxo-11-(2-(tetrahydro-2H-pyran-4-yl)ethyl)-6,7,8,9,10,11,12,13,14,15,16,17,18,19-tetradecahydro-[1,3]dioxolo[4′,5′:4,5]benzo[1,2-p][1]oxa[4,7,10,14]tetraazacycloheptadecine-17-carboxamide] | 398 nM | 102%
COc1cc2c(cc1OC)C(=O)N[C@H](C(=O)NCCc1ccc3c(c1)OCO3)CC(=O)N(C)[C@@H](CC(C)C)C(=O)N(C[C@H]1CCCCO1)CC(=O)N[C@H](Cc1ccccc1)CO2 [Example 159, (3R,9S,13S)-N-(2-(benzo[d][1,3]dioxol-5-yl)ethyl)-3-benzyl-9-isobutyl-17,18-dimethoxy-10-methyl-5,8,11,15-tetraoxo-7-(((R)-tetrahydro-2H-pyran-2-yl)methyl)-2,3,4,5,6,7,8,9,10,11,12,13,14,15-tetradecahydrobenzo[p][1]oxa[4,7,10,14]tetraazacycloheptadecine-13-carboxamide] | 385 nM | 100%
COc1cc2c(cc1OC)C(=O)N[C@H](C(=O)NCCc1ccc3c(c1)OCO3)CC(=O)N(C)[C@@H](CC(C)C)C(=O)N(C[C@@H]1CCCCO1)CC(=O)N[C@H](Cc1ccccc1)CO2 [Example 160, (3R,9S,13S)-N-(2-(benzo[d][1,3]dioxol-5-yl)ethyl)-3-benzyl-9-isobutyl-17,18-dimethoxy-10-methyl-5,8,11,15-tetraoxo-7-(((S)-tetrahydro-2H-pyran-2-yl)methyl)-2,3,4,5,6,7,8,9,10,11,12,13,14,15-tetradecahydrobenzo[p][1]oxa[4,7,10,14]tetraazacycloheptadecine-13-carboxamide] | 224 nM | 116%
